Here are results for 19 compounds from patent US12098148B2, “Therapeutic compounds” (C4X Discovery Limited, priority 2018, dated 2024).

Like-named read-outs stand apart in the source and are kept apart here.

The test system of test [1] is NQO1 mRNA in BEAS-2B cells. The test is described as follows: Beas2B NQO1 mRNA cell based assay. Set-up: species or system human. The settings on record: 24 h compound treatment, increase in NQO1 mRNA vs vehicle (0.1% DMSO), read-out: EC50. In outline:
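BEAS-2B human bronchial epithelial cells exposed to compound for 24 h at 37 °C, 5% CO2. NQO1 mRNA measured by one-step TaqMan RT-qPCR on unpurified lysates, normalized to β-actin; relative expression by ΔΔCT method.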

Test [2] concerns the target human KEAP1 (N-term, residues 321-609) (Homo sapiens, UniProt Q14145). The test can be described thus: biochemical.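 Further: fluorescence polarization competition assay of Kelch domain binding to NRF2, 12-point 1:3 dilution series from 10 µM, read after 1 h at room temperature, floor 10 nM.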

human KEAP1 (N-term, residues 321-609), sequence (Q14145 321-609): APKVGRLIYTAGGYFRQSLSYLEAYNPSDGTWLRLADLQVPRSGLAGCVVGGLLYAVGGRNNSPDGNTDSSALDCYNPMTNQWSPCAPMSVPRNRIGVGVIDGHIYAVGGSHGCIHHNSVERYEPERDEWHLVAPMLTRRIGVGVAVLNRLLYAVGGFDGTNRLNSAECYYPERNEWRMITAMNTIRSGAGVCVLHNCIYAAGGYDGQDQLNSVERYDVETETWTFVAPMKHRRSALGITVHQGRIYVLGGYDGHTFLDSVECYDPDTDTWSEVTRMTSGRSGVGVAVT

Consider `Cn1cc(COc2cccc3c2[C@@H](CN2C(=O)c4ccccc4C2=O)N(C(=O)[C@@H]2CCCC[C@@H]2C(=O)O)CC3)nn1` [Example 9, (1S,2R)-2-((S)-1-((1,3-dioxoisoindolin-2-yl)methyl)-8-((1-methyl-1H-1,2,3-triazol-4-yl)methoxy)-1,2,3,4-tetrahydroisoquinoline-2-carbonyl)cyclohexane-1-carboxylic acid], for which, in test [1] (Homo sapiens, BEAS-2B, 24 h), the EC50 was determined as 24 nM. In test [2], this compound registered an IC50 of 7.7 nM.
For `CC1CCN(C[C@@H]2c3c(OCc4cn(C(C)C)nn4)ccc(Br)c3CCN2C(=O)[C@@H]2CCCC[C@@H]2C(=O)O)C1=O` (single isomer, unassigned) [Example 74], the EC50 in test [1] stood at 22 nM. In test [2], this compound gave an IC50 of 6.8 nM.
Regarding `Cc1cnn(C[C@@H]2c3c(OCc4nnn(C)c4C(F)F)ccc(Cl)c3CCN2C(=O)[C@@H]2CCCC[C@@H]2C(=O)O)c1` [Example 84, (1S,2R)-2-((S)-5-chloro-8-((5-(difluoromethyl)-1-methyl-1H-1,2,3-triazol-4-yl)methoxy)-1-((4-methyl-1H-pyrazol-1-yl)methyl)-1,2,3,4-tetrahydroisoquinoline-2-carbonyl)cyclohexane-1-carboxylic acid], in test [1] (Homo sapiens), the EC50 came to 36 nM. In test [2], the IC50 worked out at 6.1 nM.
For the compound `COCc1c(COc2ccc(Cl)c3c2[C@@H](CN2CC4(CC4)CC2=O)N(C(=O)[C@@H]2CCCC[C@]2(C)C(=O)O)CC3)nnn1C` [Example 160, (1S,2R)-2-((S)-5-chloro-8-((5-(methoxymethyl)-1-methyl-1H-1,2,3-triazol-4-yl)methoxy)-1-((6-oxo-5-azaspiro [2.4]heptan-5-yl)methyl)-1,2,3,4-tetrahydroisoquinoline-2-carbonyl)-1-methylcyclohexane-1-carboxylic acid], the EC50 in test [1] (Homo sapiens, BEAS-2B, 24 h) stood at 0.72 nM. The IC50 in test [2] worked out at 5 nM.
The like results for `CC(C)n1cc(COc2ccc(C#N)c3c2[C@@H](CN2Cc4ccccc4C2=O)N(C(=O)[C@@H]2CCCC[C@@H]2C(=O)O)CC3)nn1` [Example 60, (1S,2R)-2-((S)-5-cyano-8-((1-isopropyl-1H-1,2,3-triazol-4-yl)methoxy)-1-((1-oxoisoindolin-2-yl)methyl)-1,2,3,4-tetrahydroisoquinoline-2-carbonyl)cyclohexane-1-carboxylic acid] were, in that order, 2.8 nM and 96 nM.
Regarding `Cc1noc(COc2ccc(Cl)c3c2[C@@H](CN2CCCC2=O)N(C(=O)[C@@H]2CCCC[C@]2(C)C(=O)O)CC3)n1` [Example 167, (1S,2R)-2-((S)-5-chloro-8-((3-methyl-1,2,4-oxadiazol-5-yl)methoxy)-1-((2-oxopyrrolidin-1-yl)methyl)-1,2,3,4-tetrahydroisoquinoline-2-carbonyl)-1-methylcyclohexane-1-carboxylic acid], the EC50 in test [1] (Homo sapiens, BEAS-2B, 24 h) was 280 nM. Further, the 50% inhibitory concentration (IC50) in test [2] was found to be 16 nM.
`C[C@]1(C(=O)O)CCCC[C@H]1C(=O)N1CCc2c(Cl)ccc(OCc3nnn(CC(F)(F)F)c3C(F)F)c2[C@H]1CN1CCCC1=O` [Example 155, (1S,2R)-2-((S)-5-chloro-8-((5-(difluoromethyl)-1-(2,2,2-trifluoroethyl)-1H-1,2,3-triazol-4-yl)methoxy)-1-((2-oxopyrrolidin-1-yl)methyl)-1,2,3,4-tetrahydroisoquinoline-2-carbonyl)-1-methylcyclohexane-1-carboxylic acid]: the EC50 in test [1] (Homo sapiens, BEAS-2B, 24 h) was found to be 4.8 nM. In test [2], this compound yielded an IC50 of 16 nM.
The matching figures for `Cc1cc(COc2ccc(Cl)c3c2[C@@H](CN2CCCC2=O)N(C(=O)[C@@H]2CCCC[C@]2(C)C(=O)O)CC3)no1` [Example 166, (1S,2R)-2-((S)-5-chloro-8-((5-methylisoxazol-3-yl)methoxy)-1-((2-oxopyrrolidin-1-yl)methyl)-1,2,3,4-tetrahydroisoquinoline-2-carbonyl)-1-methylcyclohexane-1-carboxylic acid]: 40 nM and 7.5 nM.
The matching figures for `C[C@]1(C(=O)O)CCCC[C@H]1C(=O)N1CCc2c(F)ccc(OCc3nnn4c3CCCC4)c2[C@H]1CN1CC2(CC2)CC1=O` [Example 182, (1S,2R)-2-((S)-5-fluoro-1-((6-oxo-5-azaspiro[2.4]heptan-5-yl)methyl)-8-((4,5,6,7-tetrahydro-[1,2,3]triazolo[1,5-a]pyridin-3-yl)methoxy)-1,2,3,4-tetrahydroisoquinoline-2-carbonyl)-1-methylcyclohexane-1-carboxylic acid]: 0.83 nM and 5.1 nM.
The like results for `C[C@]1(C(=O)O)CCCC[C@H]1C(=O)N1CCc2c(Cl)cc(F)c(OCc3nnn4c3CCC4)c2[C@H]1CN1CC2(CC2)CC1=O` [Example 146, (1S,2R)-2-((S)-5-chloro-8-((5,6-dihydro-4H-pyrrolo[1,2-c][1,2,3]triazol-3-yl)methoxy)-7-fluoro-1-((6-oxo-5-azaspiro[2.4]heptan-5-yl)methyl)-1,2,3,4-tetrahydroisoquinoline-2-carbonyl)-1-methylcyclohexane-1-carboxylic acid] were, in that order, 0.23 nM and 5.7 nM.
Turning to `Cn1nnc(COc2ccc(Cl)c3c2[C@@H](CN2CCCC2=O)N(C(=O)[C@@H]2CCCC[C@@H]2C(=O)O)CC3)c1C(F)F` [Example 82, (1S,2R)-2-((S)-5-Chloro-8-((5-(difluoromethyl)-1-methyl-1H-1,2,3-triazol-4-yl)methoxy)-1-((2-oxopyrrolidin-1-yl)methyl)-1,2,3,4-tetrahydroisoquinoline-2-carbonyl) cyclohexane-1-carboxylic acid], the 50% effective concentration (EC50) in test [1] (Homo sapiens, BEAS-2B, 24 h) came to 1.3 nM. The compound also came in with an IC50 in test [2] of 7.7 nM.
The matching figures for `CCn1ncc(COc2ccc(Br)c3c2[C@@H](CN2Cc4ccccc4C2=O)N(C(=O)[C@@H]2CCCC[C@@H]2C(=O)O)CC3)n1` [Example 27, (1S,2R)-2-((S)-5-bromo-8-((2-ethyl-2H-1,2,3-triazol-4-yl)methoxy)-1-((1-oxoisoindolin-2-yl)methyl)-1,2,3,4-tetrahydroisoquinoline-2-carbonyl)cyclohexane-1-carboxylic acid]: 18 nM and 8.3 nM.
For `Cn1nnc(COc2ccc(Cl)c3c2[C@@H](CN2CC(C(F)(F)F)CC2=O)N(C(=O)[C@@H]2CCCC[C@]2(C)C(=O)O)CC3)c1C(F)F` (single isomer, unassigned) [Example 213], the concentration giving a half-maximal response (EC50) in test [1] turned out to be 2.2 nM. The compound further gave an IC50 in test [2] of 5.2 nM.
In the case of `Cn1nnc(COc2ccc(Cl)c3c2[C@@H](CN2CC4(CC4)CC2=O)N(C(=O)[C@@H]2CC[C@@H](O)C[C@]2(C)C(=O)O)CC3)c1C(F)F` [Example 224, (1S,2R,5R)-2-((S)-5-chloro-8-((5-(difluoromethyl)-1-methyl-1H-1,2,3-triazol-4-yl)methoxy)-1-((6-oxo-5-azaspiro[2.4]heptan-5-yl)methyl)-1,2,3,4-tetrahydroisoquinoline-2-carbonyl)-5-hydroxy-1-methylcyclohexane-1-carboxylic acid], the half-maximal effective concentration (EC50) in test [1] (Homo sapiens, BEAS-2B, 24 h) was determined as 42 nM. The compound also registered an IC50 in test [2] of 5.8 nM.
The like results for `CC(C)n1cc(COc2ccc(Cl)c3c2[C@@H](CN2Cc4ccccc4C2=O)N(C(=O)[C@@H]2CCCC[C@@H]2C(=O)O)CC3)nn1` [Example 57, (1S,2R)-2-((S)-5-chloro-8-((1-isopropyl-1H-1,2,3-triazol-4-yl)methoxy)-1-((1-oxoisoindolin-2-yl)methyl)-1,2,3,4-tetrahydroisoquinoline-2-carbonyl)cyclohexane-1-carboxylic acid] were, in that order, 2.7 nM and 6.6 nM.
The matching figures for `Cc1nnc(COc2ccc(Cl)c3c2[C@@H](CN2CCCC2=O)N(C(=O)[C@@H]2CCCC[C@@H]2C(=O)O)CC3)n1C` [Example 103, (1S,2R)-2-((S)-5-chloro-8-((4,5-dimethyl-4H-1,2,4-triazol-3-yl)methoxy)-1-((2-oxopyrrolidin-1-yl)methyl)-1,2,3,4-tetrahydroisoquinoline-2-carbonyl) cyclohexane-1-carboxylic acid]: 67 nM and 6.7 nM.
On to `C[C@@H]1CCN(C[C@@H]2c3c(OCc4nnn(C)c4C(F)F)ccc(Cl)c3CCN2C(=O)[C@@H]2CCCC[C@]2(C)C(=O)O)C1=O` [Example 112, (1S,2R)-2-((S)-5-Chloro-8-((5-(difluoromethyl)-1-methyl-1H-1,2,3-triazol-4-yl)methoxy)-1-(((R)-3-methyl-2-oxopyrrolidin-1-yl)methyl)-1,2,3,4-tetrahydroisoquinoline-2-carbonyl)-1-methylcyclohexane-1-carboxylic acid], for which the EC50 in test [1] (Homo sapiens, BEAS-2B, 24 h) is 280 nM. Further, in test [2], the IC50 came to 9.4 nM.
The matching figures for `Cn1ncnc1COc1ccc(Br)c2c1[C@@H](CN1Cc3ccccc3C1=O)N(C(=O)[C@@H]1CCCC[C@@H]1C(=O)O)CC2` [Example 29, (1S,2R)-2-((S)-5-Bromo-8-((1-methyl-1H-1,2,4-triazol-5-yl)methoxy)-1-((1-oxoisoindolin-2-yl)methyl)-1,2,3,4-tetrahydroisoquinoline-2-carbonyl)cyclohexane-1-carboxylic acid]: 100 nM and 16 nM.
The like results for `Cc1ncc(C(=O)N2CC[C@H](Oc3cccc4c3[C@@H](CN3C(=O)c5ccccc5C3=O)N(C(=O)[C@@H]3CCCC[C@@H]3C(=O)O)CC4)C2)s1` [Example 7, (1S,2R)-2-((S)-1-((1,3-dioxoisoindolin-2-yl)methyl)-8-(((S)-1-(2-methylthiazole-5-carbonyl)pyrrolidin-3-yl)oxy)-1,2,3,4-tetrahydroisoquinoline-2-carbonyl)cyclohexane-1-carboxylic acid] were, in that order, 48 nM and 6.2 nM.
